The source of these data is US8927760B2, “Colchicine derivatives or pharmaceutically acceptable salts thereof, method for preparing said derivatives, and pharmaceutical composition comprising said derivatives” (priority 2010, dated 2015).

For one series, the system named is spleen cells of rats. The series can be described thus: Cytotoxicity test in rat spleen cells (CCK, absorbance at 450 nm). Type of series: cell-based. To be noted: 72 hours, at concentrations of 100 ng to 10000 ng/mL. How it is done: Cytotoxicity test was performed to determine the toxicity of immunosuppressant candidate materials by mixing the immunosuppressant candidate materials with spleen cells of rats in culture media and measuring the degree of toxicity in the cells. […] The concentrations of the drugs were 0.1, 1, 10, 100, 1000, 10000, and 100000 ng/mL. The cells were cultured in a CO2 incubator for 72 hours, and then each well was treated with 10 μl of CCK-SK (Dojindo, Japan). Subsequently, the cells were cultured again in the CO2 incubator for 4 hours, and then the absorbance (O.D. value) was measured at 450 nm using a spectrophotometer.

The test system of series [1] is Wistar rat (recipient) with transplanted Lewis rat heart. As to the kind of experiment: Allogeneic heart transplantation (abdominal heterotopic, Lewis donor to Wistar recipient). Format: in vivo. How it is done: Hearts of 8-week-old Lewis rats (donor) weighing about 250 g were extracted and performed abdominal heterotopic heart transplantation into the abdominal cavity of 8-week-old Wistar rat (recipient) weight about 300 g by cross-clamping caudal vena cava and the abdominal aorta of recipient both proximally and distally to the anastomotic site.
The heart rate of each rat in an untreated control group and the experimental groups was measured by abdominal palpation from the date of the heart transplant, and the heart rate was classified as ++++ (strong and fast heartbeat), +++ (strong or fast heartbeat), ++ (faint and slow but distinct heartbeat), + (faint but steady heartbeat), and ±0 (intermittent heartbeat).

Series [2] relates to streptozotocin induced diabetic Fischer 344 rats with transplanted Lewis rat islet cells. As to the kind of experiment: Allogeneic pancreatic islet cell transplantation - single intraperitoneal administration. To be noted: single administration. Format: in vivo. How it is done: (§1) Streptozotocin is a drug that destroys pancreatic islet cells to induce diabetes and is used to create experimental diabetic animal models. Allogeneic islets were transplanted into the livers of streptozotocin induced diabetic rat by injection into the portal vein. The functioning of transplanted islets was assessed by daily measurements of blood glucose levels. Islets were considered rejected when the blood glucose level was 200 mg/dl on two consecutive days.
(§2) 35 mg/kg of streptozotocin (50 mg/mL) dissolved in a 0.1 M citrate buffer solution (pH 4.5) was intraperitoneally injected into 8-week-old male Fischer 344 rats (F344) weighing about 200 to 220 g. Then, the blood glucose level was measured after 1 week, and the first day when the blood glucose level increased over 300 mg/dl and the increase was repeated more than twice was considered as the date of diagnosis of diabetes. The rats were used in transplantation 3 weeks after the administration of streptozotocin.
(§3) Pancreases of 8-week-old male Lewis rats were extracted on the 3 weeks after the diabetes was induced in Fischer rats, and islet cells were isolated. The isolated islet cells were cultured in a CO2 incubator at 37° C. for a day, and the cultured islet cells were transplanted into the diabetic Fischer rats.
Cyclosporin (5 mg/kg), colchicine (10 μg/kg and 40 μg/kg), and colchicine derivative compounds (compounds 1, 7, 9, 14, 15, 17, 18, 22, and 23; 50 μg/kg) were administered to the Fischer rats, to which the islet cells were transplanted, for 14 days from the date of transplantation, and the maintenance of blood glucose levels was examined until rejection occurred from the date of transplantation.

The test system is the same in series [3]. The series can be described thus: Allogeneic pancreatic islet cell transplantation - combined intraperitoneal administration. Format: in vivo. To be noted: i.p. for 14 days. How it is done: as §1, §2, §3
However, considering the interaction between the two drugs, the two drugs were introduced in different syringes and injected to right and left sides of the abdominal cavity, respectively, and the measurement results are shown in the following table 4.

The test system is the same in series [4]. As to the kind of experiment: Allogeneic pancreatic islet cell transplantation - continuous combined intraperitoneal administration. Type of series: in vivo. How it is done:
as §1, §2, §3

The mark [5] stands for this setting: 10 μg/kg intravenously for 14 days.
Setting [6] is: CsA (5 mg/kg) & Compound 14 (40 μg/kg) for 2 weeks, then continuously injected.
Setting [7] is: CsA (5 mg/kg) & Compound 14 (500 μg/kg) for 2 weeks, then continuously injected.
Where [8] appears, read: CsA (5 mg/kg) & Compound 14 (500 μg/kg) for 2 weeks, then only CsA (5 mg/kg).
Where [9] appears, read: CsA (5 mg/kg) & Compound 14 (500 μg/kg) for 2 weeks, then only compound 14 (500 μg/kg).
[10] abbreviates: CsA (5 mg/kg) & Compound 14 (500 μg/kg) injected for 2 weeks.

Molecules are shown by their SMILES. Where “and” joins values, the source holds several entries; their conditions need not be identical. Equal values may be shown once. Bounds are passed on as bounds.

Turning to `COc1cc2c(c(OC)c1OC)-c1ccc(OC)c(=O)cc1C(NC(=O)OCC1c3ccccc3-c3ccccc31)CC2` (stereo not shown) [Compound 14, (1,2,3,10-tetramethoxy-9-oxo-5,6,7,9-tetrahydro-benzo[a]heptalen-7-yl)-carbamic acid 9H-fluoren-9-ylmethyl ester], the cytotoxicity result in the series on spleen cells of rats is listed as “no cytotoxicity”. The “Average number of days for which heart rate was kept” value in series [1] (setting [5]) was greater than 107 ± 86.6 days; in series [1] (40 μg/kg intravenously for 14 days), greater than 173.5 ± 0.7 days. Moreover, the “Number of days for which heart rate was kept (individual rats)” value is 9 day and over 139 day and over 173 day and > 139 day and > 173 day in series [1] (setting [5]); “over 173 day and > 174 day and > 173 day” in series [1] (40 μg/kg intravenously for 14 days, * = death). In addition, the “Average number of days for which islet cell function was maintained” value in series [2] (10 μg/kg i.p. for 14 days) was 5.5 ± 0.71 days; in series [2] (40 μg/kg i.p. for 14 days), 6.5 ± 0.71 days; in series [3] (10 μg/kg combined with CsA (5 mg/kg)), 28.7 days; in series [3] (40 μg/kg combined with CsA (5 mg/kg)), greater than 61.8 days; in series [4] (setting [6]), greater than 63 ± 9.9 days; in series [4] (setting [7]) it was 67.7 ± 24.0 days. In addition, the “Average number of days for which islet cell function was maintained” value in series [4] (setting [8]) turned out to be 48.5 ± 12.0 days; in series [4] (setting [9]), 52.7 ± 52.3 days; in series [4] (setting [10]), 29 ± 3.61 days. The “Number of days for which islet cell function was maintained (individual rats)” value in series [2] (10 μg/kg i.p. for 14 days) was 5, 5 day; in series [2] (40 μg/kg i.p. for 14 days, * = death), 6 days and 7 days; in series [4] (setting [6]), 56 days and > 70 days; in series [4] (setting [7]) it was 40 days and 81 days and 82 days; in series [4] (setting [8]), 40 days and 57 days; in series [4] (setting [9]), 20 days and 25 days and 113 days. Also, the “Number of days for which islet cell function was maintained (individual rats)” value in series [4] (setting [10]) was 25 days and 30 days and 32 days. Moreover, the “islet cell function improved, times compared to 2 weeks combined administration only” value in series [4] (two drugs continuously administered together after combined administration for 2 weeks) was “about 2.3 times”.
